Patent US8753644B2, “Grass peptides for vaccine” (Circassia Limited, priority 2009, dated 2014)
No end group written: not given here.

Assays:
[1] = system: peripheral blood mononuclear cells (PBMCs) from grass allergic individuals; assay: In vitro T cell cytokine release assay (IFN-γ, IL-10, IL-13) in PBMC cultures; type: cell-based, human; settings: single peptide; for ≧9/28 +ve for one or more cytokine?: group of 28 subjects; for IFN-γ +ve/28 / IL-10 +ve/28 / IL-13 +ve/28: number of 28 grass allergic subjects positive (reading > four times control well)

Row | Substance | solubility (Solubility of peptides) | further results
1 | PEVKYAVFEAALTKAIT [Rye09B] | 5000 µg/mL | 
2 | KSSWGAIWRIDPKKPLK [Ber02C] | > 20000 µg/mL | 
3 | WGAIWRIDTPDKL [Tim04A] | 2000 µg/mL | 
4 | Bio05: Group 5 peptide of Table 2, sequence only in drawing (NDKFTVFESAFNKALNE) |  | ≧9/28 +ve for one or more cytokine? [1]: Yes; IFN-γ +ve/28 [1]: 11 +ve/28; IL-10 +ve/28 [1]: 1 +ve/28; IL-13 +ve/28 [1]: 5 +ve/28
5 | KKPEVKYAVFEAALTKAIT [Rye09B2] | 10000 µg/mL | 
6 | LKKAVTAMSEAEK [Bio04A] | > 20000 µg/mL | 
7 | FIPMKSSWGA [Ber02] | > 20000 µg/mL | 
8 | KDSDEFIPMKSSWGAIWR [Ber02B] | > 20000 µg/mL | 
9 | KYDAYVATLTEALR [Bio02A] | > 20000 µg/mL | 
10 | Bio04: Group 5 peptide of Table 2, sequence only in drawing (TALKKAVTAMSEAEKEA) |  | ≧9/28 +ve for one or more cytokine? [1]: Yes; IFN-γ +ve/28 [1]: 12 +ve/28; IL-10 +ve/28 [1]: 8 +ve/28; IL-13 +ve/28 [1]: 5 +ve/28
11 | NAGFKAAVAAAANAPPK [Rye05C] | 10000 µg/mL | 
12 | KFIPTLVAAVKQAYAAKQ [Bio03A] | > 20000 µg/mL | 
13 | SGKAFGAMAKKGQED [Ber01, SGKAFGAMAKKGQED] |  | solubility (physchem): > 20000 µg/mL
14 | KPEVKYAVFEAALTKAIT [Rye09B1] | 10000 µg/mL | 
